Earlier results on one molecule are cited in patent US12371748B2, “Genetic markers for predicting responsiveness to therapy with HDL-raising or HDL mimicking agent” (Hoffmann-La Roche Inc., priority 2014, dated 2025).

Each structure is given as a SMILES string.

For the data set the following is noted: humans; cited from earlier work.

Turning to `CCC(CC)CC1(C(=O)Nc2ccccc2SC(=O)C(C)C)CCCCC1` [dalcetrapib, thioisobutyric acid S-(2-{[1-(2-ethyl-butyl)-cyclohexanecarbonyl]-amino}-phenyl) ester], the LDL cholesterol result is on record as “decrease LDL cholesterol” and the “plasma HDL cholesterol” value is recorded as “increase plasma HDL cholesterol”.
